Like-named read-outs stand apart in the source and are kept apart here.
Experiments:
SKBR3 breast carcinoma = assay: In vitro cell proliferation inhibition, SKBR3; type: cell-based; conditions: Homo sapiens
Source text: (§1) The ability of a test compound to inhibit unregulated in vitro cell proliferation may be determined by measuring incorporation of ^14C-labelled thymidine into newly synthesized DNA within cell lines derived from carcinomas originating from several tissues. Accordingly, the effect of a test compound on proliferation of cells with a variety of phenotypes may be determined.
(§2) Carcinoma cell lines used include the HeLa cervical adenocarcinoma from the American Type Culture Collection (ATCC Cat. #CCL2), SK-OV-3 ovarian carcinoma (ATCC Cat. #HTB-77), MCF-7 breast carcinoma (ATCC Cat. #HTB-22), BT474 breast carcinoma (ATCC Cat. #HTB-20), SKBR3 breast carcinoma (ATCC Cat. #HTB-30), A431 epidermoid carcinoma (ATCC Cat. #CRL-1555) and NCI-N87 gastric carcinoma (ATCC Cat. #CRL-5822).
(§3) The carcinoma cells are trypsinized and counted. The cells (3000-8000 count) are added to each well of a 96-well CytoStar tissue culture treated scintillating microplate (Amersham #RPNQ0160) in complete medium (100 μL) and the plate is then incubated in complete medium for 24 hrs at 37° C. in an inert atmosphere containing 5% CO2.
(§4) Test compound (1 μL) in 100% DMSO is added to the plate test-wells with DMSO only added to control-wells. The plate is incubated in complete medium for a second 24 hr period at 37° C. in an atmosphere containing 5% CO2.
(§5) An aliquot of a solution of Methyl ^14C-thymidine (56 mC/mmol) (NEN #NEC568 or Amersham #CFA532) and complete medium (20 μL to provide 0.2 μCi/well) is then added to each well and the plate is incubated for a third 24 hr period at 37° C. in an atmosphere containing 5% CO2.
(§6) The plate contents are then discarded, the plate is washed twice with PBS (200 μL) and then PBS (200 μL) is added to each well. The plate is sealed and the degree of methyl ^14C-thymidine incorporation is quantified on a Packard Top Count.
(§7) Cell proliferation of the Hela cell line was measured using the ATP-Lite method as described in the ATP Lite Kit (Perkin-Elmer Kit Number 6106941) or the C^14 method as described above. Cell proliferation of the other cell lines was measured using the C^14 method.
(§8) The term “NT” means that the compound indicated was not tested in a particular cell line. The lack of such testing is not intended to imply a belief that the compound is not otherwise active in a particular cell line or any other cell line not tested.

[1] = tested on: HeLa cervical adenocarcinoma; assay: In vitro cell proliferation inhibition, HeLa; type: cell-based; conditions: Homo sapiens, read-out: HeLa IC50
Source text: as §1, §2, §3, §4, §5, §6, §7, §8

[2] = tested on: A431 epidermoid carcinoma; assay: In vitro cell proliferation inhibition, A431; type: cell-based; conditions: Homo sapiens
Source text: as §1, §2, §3, §4, §5, §6, §7, §8

[3] = tested on: NCI-N87 gastric carcinoma; assay: In vitro cell proliferation inhibition, NCI-N87; type: cell-based; conditions: Homo sapiens
Source text: as §1, §2, §3, §4, §5, §6, §7, §8

EGFR = target: T1, EGFR (Homo sapiens, UniProt P00533); assay: EGFR Kinase Assay; type: biochemical;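 also: recombinant GST-tagged EGFR expressed in Sf9 cells, phosphorylating biotinylated polyGluTyr with γ-33P ATP on Streptavidin Flashplates, 1 h at 30 °C, scintillation counting, inhibition relative to plate maximum and minimum signals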
T1 construct: The intracellular portion of EGFR started at nucleotide 2189 (corresponding to amino acid 667) and ended at the termination codon; made in house; host or cells: Sf9 insect cells (baculovirus)

BT474 breast carcinoma = assay: In vitro cell proliferation inhibition, BT474; type: cell-based; conditions: Homo sapiens
Source text: as §1, §2, §3, §4, §5, §6, §7, §8

HER-2 = target: T2, HER-2 (Homo sapiens, UniProt P04626); assay: HER-2 Kinase Assay; type: biochemical; conditions: read-out: HER2 IC50;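 also: HER2 kinase reaction read by scintillation counting, inhibition scaled between maximum and minimum signals set on each plate, IC50 from inhibition against log concentration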
T2 construct: purchased Proqinase (Freiburg, Germany)

MCF-7 breast carcinoma = assay: In vitro cell proliferation inhibition, MCF-7; type: cell-based; conditions: Homo sapiens, MCF7; MCF-7 cells, 14C-thymidine incorporation
Source text: as §1, §2, §3, §4, §5, §6, §7, §8

[4] = tested on: SK-OV-3 ovarian carcinoma; assay: In vitro cell proliferation inhibition, SK-OV-3; type: cell-based; conditions: Homo sapiens; SK-OV-3 cells, 14C-thymidine incorporation
Source text: as §1, §2, §3, §4, §5, §6, §7, §8

[5] = SK-BR-3, SKBR3 cells, 14C-thymidine incorporation, read-out: IC50 SKBR3
[6] = HeLa cell line, ATP-Lite method or C14 thymidine method
[7] = A-431, A431 cells, 14C-thymidine incorporation, read-out: IC50 A431
[8] = NCI-N87, N87 cells, 14C-thymidine incorporation, read-out: IC50 N87
[9] = BT-474, BT474 cells, 14C-thymidine incorporation, read-out: IC50 BT474

T1 sequence (P00533 669-1210 limits assumed): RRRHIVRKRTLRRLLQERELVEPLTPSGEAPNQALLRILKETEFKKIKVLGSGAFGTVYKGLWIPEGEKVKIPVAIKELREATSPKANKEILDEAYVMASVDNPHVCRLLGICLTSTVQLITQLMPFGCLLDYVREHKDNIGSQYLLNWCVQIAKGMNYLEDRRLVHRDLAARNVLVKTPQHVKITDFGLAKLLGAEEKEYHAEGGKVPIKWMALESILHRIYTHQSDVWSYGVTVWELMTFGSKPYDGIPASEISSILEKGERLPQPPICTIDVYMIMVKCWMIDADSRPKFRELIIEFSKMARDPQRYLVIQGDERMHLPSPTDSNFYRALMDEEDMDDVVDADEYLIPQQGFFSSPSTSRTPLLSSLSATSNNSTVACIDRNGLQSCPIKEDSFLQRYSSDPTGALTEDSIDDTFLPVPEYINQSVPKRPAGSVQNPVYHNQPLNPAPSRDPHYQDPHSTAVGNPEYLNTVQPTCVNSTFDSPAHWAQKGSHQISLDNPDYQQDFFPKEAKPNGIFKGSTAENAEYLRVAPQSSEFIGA
T2 sequence (P04626 679-1255): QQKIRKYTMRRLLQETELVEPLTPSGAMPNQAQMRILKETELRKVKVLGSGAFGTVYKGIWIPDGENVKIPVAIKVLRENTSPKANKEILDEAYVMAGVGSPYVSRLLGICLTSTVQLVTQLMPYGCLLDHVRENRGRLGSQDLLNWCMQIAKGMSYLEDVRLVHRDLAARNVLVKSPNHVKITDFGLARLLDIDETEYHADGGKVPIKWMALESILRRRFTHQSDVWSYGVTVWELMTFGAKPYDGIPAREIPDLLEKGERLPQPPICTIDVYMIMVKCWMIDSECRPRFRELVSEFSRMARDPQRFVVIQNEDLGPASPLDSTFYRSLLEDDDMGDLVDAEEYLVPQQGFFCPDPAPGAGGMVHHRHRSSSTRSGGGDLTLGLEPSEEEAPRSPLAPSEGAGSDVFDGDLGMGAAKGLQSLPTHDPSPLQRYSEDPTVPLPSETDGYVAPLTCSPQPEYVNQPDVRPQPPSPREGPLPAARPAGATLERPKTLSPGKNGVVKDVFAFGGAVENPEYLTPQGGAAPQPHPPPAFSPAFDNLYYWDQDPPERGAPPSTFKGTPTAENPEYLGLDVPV

Structure (SMILES)	IC50 (SKBR3 breast carcinoma; [5])	IC50 [1, 6]	IC50 [2, 7]	IC50 [3, 8]	IC50 (EGFR)	IC50 (BT474 breast carcinoma; [9])	IC50 (HER-2)	IC50 (MCF-7 breast carcinoma)	IC50 [4]	IC50 (SKBR3 breast carcinoma; SK-BR-3, read-out: IC50 SKBR3)	IC50 ([1]; HeLa)	IC50 ([2]; A-431, read-out: IC50 A431)	IC50 ([3]; NCI-N87, read-out: IC50 N87)	IC50 (BT474 breast carcinoma; BT-474, read-out: IC50 BT474)
Nc1ncnc(Nc2ccc3c(ccn3Cc3cccc(F)c3)c2)c1/C=N/OCCN1CCCCC1 [Cpd 102, (5E)-4-amino-6-[1-(3-fluoro-benzyl)-1H-indol-5-ylamino]-pyrimidine-5-carbaldehyde O-(2-piperidin-1-yl-ethyl)-oxime]	700 nM	1400 nM	1 nM	200 nM	40 nM	900 nM	140 nM							
CO/N=C/c1c(N)ncnc1Nc1ccc2[nH]c(Cc3cccc(F)c3)nc2c1 [Cpd 60, (5E)-4-amino-6-[2-(3-fluoro-benzyl)-1H-benzoimidazol-5-ylamino]-pyrimidine-5-carbaldehyde O-methyl-oxime]		10000 nM		600 nM				10000 nM	10000 nM					
Nc1ncnc(Nc2ccc(OCc3ccccc3)c(Cl)c2)c1/C=N/OCCN1CCCCC1 [Cpd 95, (5E)-4-amino-6-(4-benzyloxy-3-chloro-phenylamino)-pyrimidine-5-carbaldehyde O-(2-piperidin-1-yl-ethyl)-oxime]	10000 nM	12100 nM	100000 nM	1100 nM	50 nM	10000 nM	200 nM	1000 nM	2400 nM					
Nc1ncnc(Nc2ccc(OCc3cccc(F)c3)c(Cl)c2)c1/C=N/O [Cpd 79, (5E)-4-amino-6-[3-chloro-4-(3-fluoro-benzyloxy)-phenylamino]-pyrimidine-5-carbaldehyde oxime]		100000 nM			8 nM		10 nM							
Nc1ncnc(Nc2ccc3c(cnn3Cc3cccc(F)c3)c2)c1/C=N/OCCCN1CCCCC1 [Cpd 92, (5E)-4-amino-6-[1-(3-fluoro-benzyl)-1H-indazol-5-ylamino]-pyrimidine-5-carbaldehyde O-(3-piperidin-1-yl-propyl)-oxime]	400 nM	4700 nM	3100 nM	200 nM	50 nM	200 nM	30 nM							
Nc1ncnc(Nc2ccc3c(cnn3Cc3cccc(F)c3)c2)c1/C=N/OCCCN1CCOCC1 [Cpd 87, (5E)-4-amino-6-[1-(3-fluoro-benzyl)-1H-indazol-5-ylamino]-pyrimidine-5-carbaldehyde O-(3-morpholin-4-yl-propyl)-oxime]	500 nM	4900 nM	3600 nM	300 nM	30 nM	300 nM	70 nM							
Nc1ncnc(Nc2ccc3c(cnn3Cc3cccc(F)c3)c2)c1/C=N/OCCN1CCCCC1 [Cpd 96, (5E)-4-amino-6-[1-(3-fluoro-benzyl)-1H-indazol-5-ylamino]-pyrimidine-5-carbaldehyde O-(2-piperidin-1-yl-ethyl)-oxime]	400 nM	14700 nM	800 nM	200 nM	60 nM	200 nM	100 nM	2100 nM	15300 nM					
Nc1ncnc(Nc2ccc(OCc3ccccc3)c(Cl)c2)c1/C=N/OCCCO [Cpd 76, (5E)-4-amino-6-(4-benzyloxy-3-chloro-phenylamino)-pyrimidine-5-carbaldehyde O-(3-hydroxy-propyl)-oxime]	300 nM	59400 nM	1800 nM	300 nM	10 nM	200 nM	30 nM	10000 nM	24100 nM					
Nc1ncnc(Nc2ccc(OCc3cc(F)cc(F)c3)c(Cl)c2)c1/C=N/O [Cpd 98, (5E)-4-amino-6-[3-chloro-4-(3,5-difluoro-benzyloxy)-phenylamino]-pyrimidine-5-carbaldehyde oxime]		100000 nM			20 nM		100 nM							
CN(C)CCCO/N=C/c1c(N)ncnc1Nc1ccc2c(cnn2Cc2cccc(F)c2)c1 [Cpd 70, (5E)-4-amino-6-[1-(3-fluoro-benzyl)-1H-indazol-5-ylamino]-pyrimidine-5-carbaldehyde O-(3-dimethylamino-propyl)-oxime]					20 nM		20 nM			400 nM	10000 nM	14200 nM	300 nM	100 nM
CO/N=C/c1c(N)ncnc1Nc1ccc2c(ccn2Cc2cccc(F)c2)c1 [Cpd 34, (5E)-4-amino-6-[1-(3-fluoro-benzyl)-1H-indol-5-ylamino]-pyrimidine-5-carbaldehyde O-methyl-oxime]		3500 nM		200 nM				3800 nM	3200 nM					
Nc1ncnc(Nc2ccc(OCc3ccccc3)c(Cl)c2)c1/C=N/O [Cpd 77, (5E)-4-amino-6-(4-benzyloxy-3-chloro-phenylamino)-pyrimidine-5-carbaldehyde oxime]		10000 nM			20 nM		100 nM							
N#Cc1c(N)ncnc1Nc1ccc(OCc2ccccc2)c(Cl)c1 [Cpd 118, 4-amino-6-(4-benzyloxy-3-chloro-phenylamino)-pyrimidine-5-carbonitrile]	100000 nM	100000 nM	100000 nM	100000 nM	30 nM	100000 nM	100 nM							
Nc1ncnc(Nc2ccc(OCc3cc(F)cc(F)c3)c(Cl)c2)c1/C=N/OCCN1CCOCC1 [Cpd 99, (5E)-4-amino-6-[3-chloro-4-(3,5-difluoro-benzyloxy)-phenylamino]-pyrimidine-5-carbaldehyde O-(2-morpholin-4-yl-ethyl)-oxime]	100000 nM	100000 nM	100000 nM	100000 nM	70 nM	10000 nM	200 nM							
Nc1ncnc(Nc2ccc(F)c(Cl)c2)c1/C=N/OCCN1CCOCC1 [Cpd 108]		10000 nM			200 nM		1100 nM							
Nc1ncnc(Nc2ccc(OCc3cccc(F)c3)c(Cl)c2)c1/C=N/OCCCO [Cpd 75, (5E)-4-amino-6-[3-chloro-4-(3-fluoro-benzyloxy)-phenylamino]-pyrimidine-5-carbaldehyde O-(3-hydroxy-propyl)-oxime]		40100 nM		1 nM	8 nM		9 nM	30700 nM	10000 nM					
Nc1ncnc(Nc2ccc3c(cnn3Cc3cccc(F)c3)c2)c1/C=N/OCc1ccccc1 [Cpd 46, (5E)-4-amino-6-[1-(3-fluoro-benzyl)-1H-indazol-5-ylamino]-pyrimidine-5-carbaldehyde O-benzyl-oxime]	300 nM	100000 nM	100000 nM	10000 nM		100 nM								
CO/N=C/c1c(N)ncnc1Nc1ccc(OCc2ccccc2)c(Cl)c1 [Cpd 9, (5E)-4-amino-6-(4-benzyloxy-3-chloro-phenylamino)-pyrimidine-5-carbaldehyde O-methyl-oxime]		35000 nM		700 nM				86600 nM	100000 nM					

From patent publication US8153791B2, “Substituted pyrimidinyl oxime kinase inhibitors” (Janssen Pharmaceutica N.V., priority 2005, dated 2012)
